Results taken from patent US9839642B2, “Beta-tetrazolyl-propionic acids as metallo-beta-lactamase inhibitors” (priority 2014, dated 2017).
pIC50: −log10 of the molar value.

Columns and labels:
IMP-1 = IMP-1 (Serratia marcescens, UniProt P52699); experiment: Enzyme activity: determination of IC50, fluorescence assay with CCF2-FA substrate; type: biochemical; conditions: enzyme 2 pM, CCF2-FA 1.25 μM, 2 hours at 25° C.; read-out: IMP1 IC50
Protocol: (§1) Enzyme Activity: Determination of IC50
(§2) The Class B enzyme activities were measured in the presence of a compound of the EXAMPLES as a test inhibitor in a fluorescence assay against a commercially available substrate consisting of a cephalosporin core linking 7-hydroxycoumarin to fluorescein (CCF2-FA; Life Technologies, Grand Island, N.Y.). The enzyme (NDM-1, IMP-1 or VIM-1) and the substrate were diluted in 100 mM KH2PO4 buffer (pH 7) containing 0.005% Tween-20 and 10 μM ZnSO4. In the assay, the final concentration of enzyme was 1 pM, 2 pM and 30 pM for NDM-1, IMP-1 and VIM-1, respectively, and the final concentration of CCF2-FA was 1.25 μM. The test inhibitor was dissolved in DMSO and diluted 1:50 in the assay, resulting in a final concentration range of 20 μM to 0.00063 μM. In a 384-well microplate, the test inhibitor was incubated with the metallo-β-lactamase enzyme and the substrate for 2 hours at 25° C. Fluorescence at 460 nm following excitation at 405 nm was measured. The IC50 value was determined from semi-logarithmic plots of enzyme inhibition versus inhibitor concentration, with a curve generated using a 4-parameter fit.

VIM-1 = VIM-1 (Pseudomonas aeruginosa, UniProt A0A0F7KYQ8); experiment: as above; type: biochemical; conditions: enzyme 30 pM, CCF2-FA 1.25 μM, 2 hours at 25° C.; read-out: VIM1 IC50
Protocol: as §1, §2

NDM-1 = NDM-1 (Klebsiella pneumoniae, UniProt C7C422); experiment: as above; type: biochemical; conditions: enzyme 1 pM, CCF2-FA 1.25 μM, 2 hours at 25° C.; read-out: NDM1 IC50
Protocol: as §1, §2

[1] = tested on: Serratia marcescens expressing IMP-1 (CL5741); experiment: Antibiotic potentiation activity: synergistic concentration (MITC95) with imipenem, growth by OD600; type: cell-based; conditions: 95% inhibition of bacterial growth, strain CL5741
Protocol: (§3) Antibiotic Potentiation Activity: Determination of Synergistic Concentration
(§4) The bacterial strains tested included the clinical strains Escherichia coli expressing NDM-1 (CLB30005, CLB30016), Serratia marcescens expressing IMP-1 (CL5741), and Klebsiella pneumoniae expressing VIM-1 (IHMA599644). Inhibitor activity was measured in the presence and absence of imipenem or ceftazidime in a 384-well microplate.
(§5) The clinical strains CLB30016, CL5741, and IHMA599644 were grown on trypticase soy agar containing 5% sheep's blood. The clinical strain CLB30005 was grown on Mueller Hinton broth agar containing 8 μg/ml imipenem. The bacteria on agar plates were incubated overnight at 35° C. with ambient humidity (achieved from an open pan of water inside the incubator). The following day, individual colonies from each clinical strain were picked and resuspended in 5 ml saline to attain an OD600 of 0.14, 0.11, 0.15 and 0.13, for CLB30005, CLB30016, CL5741 and IHMA599644, respectively. These were further diluted 1:100 into 1.1×CAMHB and used to inoculate the test wells as described below.
(§6) Imipenem in 10 mM 3-(N-morpholino)propanesulfonic acid (MOPS, pH 7) was stored in single use aliquots at −80° C. Test inhibitors were dissolved in DMSO and diluted 1:50 in the assay, resulting in a final concentration range of 200 μM to 0.195 μM. On the day of the assay, 4 μl of antibiotic was added to 45 μl of bacteria followed by 1 μl of test compound and mixed by pipetting and with an orbital shaker. The concentration of antibiotic used in the assay was 1 μg/ml or 4 μg/ml. Microplates were covered and incubated at 35° C. for 22 hours to 24 hours. At the end of the incubation, absorbance was determined using a spectrophotometer. The synergistic concentration of MBLI was determined by identifying the lowest concentration of test compound in the presence of a given concentration of antibiotic that was required to inhibit 95% of the growth of the bacteria.
(§7) Representative compounds of the present invention display a synergistic effect. For example, representative compounds of EXAMPLES 1-456 were determined to restore susceptibility to imipenem at concentrations of 200 μM or less.

[2] = tested on: Escherichia coli expressing NDM-1 (CLB30016); experiment: as above; type: cell-based; conditions: 95% inhibition of bacterial growth, strain CLB30016
Protocol: as §3, §4, §5, §6, §7

[3] = tested on: Klebsiella pneumoniae expressing VIM-1 (IHMA599644); experiment: as above; type: cell-based; conditions: 95% inhibition of bacterial growth, strain IHMA599644
Protocol: as §3, §4, §5, §6, §7

NDM-1, sequence (C7C422 29-270, looked up, species assumed): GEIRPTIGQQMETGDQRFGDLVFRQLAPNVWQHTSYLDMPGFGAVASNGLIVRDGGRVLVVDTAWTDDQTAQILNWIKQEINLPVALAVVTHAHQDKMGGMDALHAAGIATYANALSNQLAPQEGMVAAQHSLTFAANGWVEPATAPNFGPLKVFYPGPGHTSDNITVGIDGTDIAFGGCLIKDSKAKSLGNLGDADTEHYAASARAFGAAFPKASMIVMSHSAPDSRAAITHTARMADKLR
IMP-1, sequence (P52699 19-246, looked up, species assumed): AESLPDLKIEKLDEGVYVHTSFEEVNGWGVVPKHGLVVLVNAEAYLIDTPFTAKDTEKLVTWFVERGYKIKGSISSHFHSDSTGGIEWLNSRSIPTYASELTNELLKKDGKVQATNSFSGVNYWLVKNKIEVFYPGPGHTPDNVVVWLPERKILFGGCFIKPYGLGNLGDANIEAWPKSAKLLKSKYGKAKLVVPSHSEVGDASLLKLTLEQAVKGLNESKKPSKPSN

SMILES | pIC50 (IMP-1) | pIC50 (VIM-1) | pIC50 (NDM-1) | IMP1 SM5741 MITC95 [1] [µM] | NDM1 EC30016 MITC95 [2] [µM] | VIM1 KP599644 MITC95 [3] [µM]
CCC[C@H](C(=O)O)[C@H](Cc1ccccc1Br)c1nnn[nH]1 [Example 26, (2S)-2-[(1S)-2-(2-bromophenyl)-1-(1H-tetrazol-5-yl)ethyl]pentanoic acid] | 6.24 | 8.62 | 8.00 | 12.5 | 3.1 | 18.8
CCC[C@H](C(=O)O)[C@H](Cc1cccc(C#N)c1)c1nn[nH]n1 [Example 41, (2S)-2-[(1S)-2-(3-cyanophenyl)-1-(1H-tetrazol-5-yl)ethyl]pentanoic acid] | 6.23 | 9.06 | 7.22 | 37.5 | 18.8 | 18.8
CC(C)C[C@H](C(=O)O)[C@H](Cc1ccc(C#N)cc1)c1nnn[nH]1 [Example 42] | 6.72 | 8.85 | 7.13 | 12.5 | 18.8 | 37.5
CCC[C@H](C(=O)O)[C@H](Cc1ccccc1C#N)c1nnn[nH]1 [Example 43, (2S)-2-[(1S)-2-(2-cyanophenyl)-1-(1H-tetrazol-5-yl)ethyl]pentanoic acid] | 5.80 | 8.49 | 7.66 | 50 | 4.7 | 31
CCC[C@H](C(=O)O)[C@H](Cc1ccc(-c2nnn[nH]2)cc1)c1nn[nH]n1 [Example 44, (S)-2-((S)-2-(4-(1H-tetrazol-5-yl)phenyl)-1-(2H-tetrazol-5-yl)ethyl)pentanoic acid] | 6.19 | 8.26 | 7.68 | 18.8 | 150 | 200
CCC[C@H](C(=O)O)[C@H](Cc1cccc(C(N)=O)c1)c1nn[nH]n1 [Example 46, (2S)-2-[(1S)-2-(3-carbamoylphenyl)-1-(2H-tetrazol-5-yl)ethyl]pentanoic acid] | 5.80 | 8.23 | 7.15 | 37.5 | 9.4 | 12.5
CCC[C@H](C(=O)O)[C@H](Cc1ccccc1C(N)=O)c1nnn[nH]1 [Example 47, (2S)-2-[(1S)-2-(2-carbamoylphenyl)-1-(1H-tetrazol-5-yl)ethyl]pentanoic acid] | 5.14 | 7.14 | 6.92 | 200 | 9.4 | 37.5
CC(C)C[C@H](C(=O)O)[C@H](Cc1ccc(C(N)=O)cc1)c1nnn[nH]1 [Example 48, (2S)-2-[(1S)-2-(4-carbamoylphenyl)-1-(1H-tetrazol-5-yl)ethyl]-4-methylpentanoic acid] | 6.89 | 8.66 | 7.37 | 4.7 | 6.2 | 50
CC(C)C[C@H](C(=O)O)[C@H](Cc1ccc(S(C)(=O)=O)cc1)c1nn[nH]n1 [Example 50, (S)-4-methyl-2-((S)-2-(4-(methylsulfonyl)phenyl)-1-(2H-tetrazol-5-yl)ethyl)pentanoic acid] | 7.00 | 8.18 | 7.33 | 6.2 | 25 | 50
CC(C)CC(C(=O)O)[C@H](Cc1ccc(S(C)(=O)=O)cc1)c1nn[nH]n1 (stereo partly drawn) [Example 51, CAN-4-methyl-2-((S)-2-(4-(methylsulfonyl)phenyl)-1-(2H-tetrazol-5-yl)ethyl)pentanoic acid] | 6.27 | 7.60 | 6.74 | 25 | 75 | 150
CCC[C@H](C(=O)O)[C@H](Cc1ccc(C)cc1)c1nn[nH]n1 [Example 52, (S)-2-((S)-1-(2H-tetrazol-5-yl)-2-(p-tolyl)ethyl)pentanoic acid] | 6.17 | 8.00 | 7.06 | 18.8 | 18.8 | 25
Cc1ccc(C[C@H](c2nn[nH]n2)[C@H](CC(C)C)C(=O)O)cc1 [Example 53, (S)-2-((S)-1-(2H-tetrazol-5-yl)-2-(p-tolyl)ethyl)-4-methylpentanoic acid] | 7.05 | 8.24 | 7.43 | 4.7 | 18.8 | 75
CCC[C@H](C(=O)O)[C@H](Cc1ccc(CN)cc1)c1nnn[nH]1 [Example 54, (S)-2-((S)-2-(4-(aminomethyl)phenyl)-1-(1H-tetrazol-5-yl)ethyl)pentanoic acid] | 4.89 | 7.40 | 5.80 | 75 | 18.8 | 12.5
CCC[C@H](C(=O)O)[C@H](Cc1ccc(CN2CCNCC2)cc1)c1nnn[nH]1 [Example 55, (S)-2-((S)-2-(4-(piperazin-1-ylmethyl)phenyl)-1-(1H-tetrazol-5-yl)ethyl)pentanoic acid] | 6.09 | 7.72 | 6.92 | 18.8 | 6.2 | 25
CC(C)C[C@H](C(=O)O)[C@H](Cc1ccc(CN)c(F)c1)c1nnn[nH]1 [Example 56, (S)-2-((S)-2-(4-(aminomethyl)-3-fluorophenyl)-1-(1H-tetrazol-5-yl)ethyl)-4-methylpentanoic acid] | 5.77 | 8.00 | 6.28 | 47 | 9.4 | 18.8
CCC[C@@H](C(=O)O)[C@H](Cc1ccc(-c2ccc(N3CCNCC3)nc2)cc1)c1nnn[nH]1 [Example 57, (2R)-2-[(1S)-2-[4-(6-piperazin-1-ylpyridin-3-yl)phenyl]-1-(1H-tetrazol-5-yl)ethyl]pentanoic acid] | 5.55 | 6.77 | 6.19 | 150 | 200 | >200
CC(C)[C@H](C(=O)O)[C@H](Cc1ccc(C2=CCNC2)cc1)c1nnn[nH]1 [Example 60, (2S,3S)-4-(4-(2,5-dihydro-1H-pyrrol-3-yl)phenyl)-2-isopropyl-3-(1H-tetrazol-5-yl)butanoic acid] | 6.12 | 8.72 | 7.25 | 9.4 | 3.1 | 4.7
O=C(O)[C@@H](C1CCCC1)[C@H](Cc1ccc(C2=CCNC2)cc1)c1nnn[nH]1 [Example 61, (2S,3S)-2-cyclopentyl-4-(4-(2,5-dihydro-1H-pyrrol-3-yl)phenyl)-3-(1H-tetrazol-5-yl)butanoic acid] | 6.82 | 8.72 | 7.49 | 3.9 | 2.3 | 6.2
